Common to all, as to type: cell-based
The subject of assay [1] is p53. The assay is described as follows: Examination of p53 expression pattern (western blot). Particulars: single treatment of cisplatin; FIG. 6. The protocol: Cells treated with Amomi Rotundus Fructus extract and/or cisplatin were harvested, and RIPA buffer was added thereto, followed by sonication for cell lysis. Centrifugation was performed at 15,000 rpm for 15 minutes, and the supernatant was obtained, and subjected to protein quantification by BCA assay. The protein was loaded at an amount of 20 μg/10 μl in each well, and 12% SDS-PAGE polyacrylamide gel electrophoresis was performed, and transferred to a nitrocellulose membrane. The membrane was blocked with 5% Skim milk-TBST, and then treated with primary antibody (anti-p53/dilution-1:300). p53 was detected with HRP conjugated anti-mouse IgG (dilution-1:5000) and immune reaction was visualized by ECL. The measurement results are shown as Mean±S.E.M. (standard error of mean) in FIG. 6. Data of the experimental results were analyzed using Microsoft Excel program, and post-test analysis using Bonferroni multiple comparison test was performed to investigate the differences between the groups. p<0.001 was considered statistically significant, and expressed as *; p<0.001 to compare with cisplatin.

The subject of assay [2] is renal cells. The assay is described as follows: Measurement of ROS generation (DCF-DA). As to conditions: single treatment, after 24 hours; based on 100% ROS generation of the control group; FIGS. 4a to 4e. The protocol:
In order to measure antioxidant effect of the Amomi Rotundus Fructus extract and the fraction thereof in renal cells, ROS generation test was performed. First, renal cells were seeded at a density of 1×10^5 cells per well of 96-well plate. After 24 hours, the cells were pre-treated with 100 μg of the Amomi Rotundus Fructus extract. 2 hours after treatment, cisplatin was treated at a final concentration of 25 μg/ml, followed by culture for 24 hours. DCF-DA dissolved in PBS was treated in the dark according to the treatment concentration of DCF-DA and the reaction time which were determined by historical data and preliminary experiment, and reaction was allowed for 5 hours under basic culture conditions. At the time point of 0, 4, 8, 12, 16, 20, 24 hr, end-point fluorescence wavelength at Ex: 485 nm and Em: 528 nm was measured at S=50.

In assay [3] the test system is renal cells. The assay is described as follows: Measurement of GSH content. Particulars: single treatment of cisplatin, culture 24 hours; FIGS. 5a to 5e. The protocol:
Because GSH level is known as an index to evaluate a cell-protecting effect on drug-induced cellular injury, GSH level was measured to examine the cell-protecting effect of the Amomi Rotundus Fructus extract or the fraction thereof against cisplatin. The GSH levels were determined by monochlorobimane, and experiments for measuring GSH content were performed using the kidney tissues with reference to the conventional method of Fernandez-Checa and Kaplowitz. The number of cells, in which GSH is detectable, was determined by historical data and preliminary experiment, and 2×10^6 cells were seeded to each well of culture plate. After culture for 24 hours, the dilution fold of the final concentration of the drug determined as an active drug was considered and calculated, based on the results of MTT Assay and crystal violet Assay. […] Centrifugation was carried out at 10,000 rpm for 15 minutes, and then the supernatant was collected and used for BCA protein quantification. […] End-point fluorescence wavelength at Ex: 360 nm and Em: 460 nm was measured at S=70. Data of the experimental results were analyzed using Microsoft Excel program, and post-test analysis using Bonferroni multiple comparison test was performed to investigate the differences between the groups. p<0.001 was considered statistically significant.

The subject of assay [4] is renal cells. The assay is described as follows: MTT assay, cell viability of renal cells with or without cisplatin. The protocol: To measure cell viability of renal cells by the Amomi Rotundus Fructus extract and the fraction thereof, MTT assay was performed. First, renal cells were seeded at a density of 1×10^4 cells per well of 96-well plate. After 24 hours, the cells were treated with each 50 μg thereof which was prepared by dilution at three final concentrations (50, 100, 200 μg/ml). After 2 hours, cisplatin was treated at a final concentration of 25 μg/ml, and cells were cultured for 24 hours. After 24 hours, 10 μl of the assay reagent of EZ-Cytox Cell Viability assay kit was added to each well using a Micro multi Pipette, taking care to introduce no bubbles, and reaction was allowed for 4 hours under basic culture conditions. Absorbance at 450 nm was measured. p<0.005 was considered statistically significant.
A general note: Tetrazolium assays rely on reduction of a dye to a coloured formazan, in cell work by metabolically active cells.

As for `N.N.[Cl][Pt][Cl]` [cisplatin, cis-diaminedichloroplatinum II], the p53 expression level entry in assay [1] is “remarkably increased”. Also, the ROS generation in assay [2] is reported as not below 170%. For the same compound, the GSH content result in assay [3] is on record as “reduced”. For the same compound, the cell viability result in assay [4] (pre-treatment 50, 100, 200 μg/ml, cisplatin 25 μg/ml after 2 hours, culture 24 hours, based on 100% cell viability of the control group, FIGS. 2a to 2e) was “remarkably reduced”. In assay [4] (single treatment, based on 100% cell activity of the control group, FIGS. 3a to 3e), this compound registered a cell activity not above 40%.

The values are drawn from patent US9737583B2, “Composition for prevention or treatment of acute renal failure including herbal extract or fraction thereof as active ingredient” (KOREA INSTITUTE OF ORIENTAL MEDICINE, priority 2012, dated 2017).
